Values of other authors, collected in publication PMC3290704 (Journal of the American Chemical Society, 2012).

What was measured:
TAZ2 from p300 = conditions: NMR structure of complex
TAZ2 = conditions: fluorescence titrations

Substance | TAZ2 residues in direct hydrophobic contact with p53 (TAZ2 from p300) | p53 residues forming an α-helix upon binding (TAZ2 from p300) | Kd (TAZ2)
p53(2–39): p53(2–39) peptide in NMR structure with TAZ2 from p300 | Val1802, Leu1823, and Leu1826 of TAZ2 have direct hydrophobic contacts with p53 | residues 17 ~ 24 of the p53 AD1 subdomain form an α-helix upon binding | –
p53(13–61): p53(13–61), literature TAZ2 binder by fluorescence titration | – | – | 10 to 20 nM
